Broadly, the IC50 is the concentration that inhibits the measured activity by half.

For four compounds, IC50 results are on record in ChEMBL document CHEMBL4665676, “Matrix Metalloproteinases as New Targets in Alzheimer's Disease: Opportunities and Challenges” (J Med Chem, 2020).

The target in test [1] is Macrophage metalloelastase (Homo sapiens, UniProt P39900). Briefly: Inhibition of recombinant human MMP12 using Mca-Pro-Leu-Gly-Leu-Dpa-Ala-Arg-NH2 as substrate by […] method.
Test [2] concerns the target T1, 72 kDa type IV collagenase (Homo sapiens, UniProt P08253). Kind of test: Inhibition of MMP2 (unknown origin) using 3163v as substrate preincubated for 15 mins followed by substrate addition and measured after 40 mins by fluorometric method.
In test [3] the target is T2, Matrix metalloproteinase-14 (Homo sapiens, UniProt P50281). Briefly: Inhibition of human MT1-MMP using 3163v as substrate preincubated for 15 mins followed by substrate addition and measured after 40 mins by fluorometric method.
The target in a further test is Stromelysin-1 (Homo sapiens, UniProt P08254). Briefly: Inhibition of MMP3 (unknown origin) using 3168v as substrate preincubated for 15 mins followed by substrate addition and measured after 40 mins by fluorometric method.
For a further test, the target named is T3, Matrilysin (Homo sapiens, UniProt P09237).
T3 sequence (P09237 whole entry): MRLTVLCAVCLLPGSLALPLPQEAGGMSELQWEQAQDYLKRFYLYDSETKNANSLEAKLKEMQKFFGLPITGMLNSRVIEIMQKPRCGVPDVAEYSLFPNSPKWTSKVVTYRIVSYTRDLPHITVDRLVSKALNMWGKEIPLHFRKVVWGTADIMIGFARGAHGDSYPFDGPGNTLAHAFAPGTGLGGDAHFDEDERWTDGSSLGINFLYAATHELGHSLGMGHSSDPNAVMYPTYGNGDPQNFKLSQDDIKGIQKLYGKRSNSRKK
Kind of test: Inhibition of human MMP7 using 3163v as substrate preincubated for 15 mins followed by substrate addition and measured after 40 mins by fluorometric method.

In test [4] the target is T4, Matrix metalloproteinase-9 (Homo sapiens, UniProt P14780). Briefly: Inhibition of human MMP9 using 3163v as substrate preincubated for 15 mins followed by substrate addition and measured after 40 mins by fluorometric method.
For test [5], the target named is T2, Matrix metalloproteinase-14. Briefly: Inhibition of MT1-MMP catalytic domain (unknown origin) expressed in Escherichia coli using 7-methoxycoumarin-4-yl)acetyl-Pro-Leu-Gly-Leu-(3-[2,4-dinitrophenyl]-L-2,3-diaminopropionyl)-Ala-Arg-NH2 as substrate incubated for 30 mins by fluorescence method.
The target of test [6] is T1, 72 kDa type IV collagenase. Briefly: Inhibition of human MMP2 measured at 5 mins interval for 1 hr by fluorescence method.
The target of test [7] is T4, Matrix metalloproteinase-9. Kind of test: Inhibition of human MMP9 measured at 5 mins interval for 1 hr by fluorescence method.

Peptide text beside a SMILES is read from it.

T4 sequence (P14780 whole entry, the tested form may be a part): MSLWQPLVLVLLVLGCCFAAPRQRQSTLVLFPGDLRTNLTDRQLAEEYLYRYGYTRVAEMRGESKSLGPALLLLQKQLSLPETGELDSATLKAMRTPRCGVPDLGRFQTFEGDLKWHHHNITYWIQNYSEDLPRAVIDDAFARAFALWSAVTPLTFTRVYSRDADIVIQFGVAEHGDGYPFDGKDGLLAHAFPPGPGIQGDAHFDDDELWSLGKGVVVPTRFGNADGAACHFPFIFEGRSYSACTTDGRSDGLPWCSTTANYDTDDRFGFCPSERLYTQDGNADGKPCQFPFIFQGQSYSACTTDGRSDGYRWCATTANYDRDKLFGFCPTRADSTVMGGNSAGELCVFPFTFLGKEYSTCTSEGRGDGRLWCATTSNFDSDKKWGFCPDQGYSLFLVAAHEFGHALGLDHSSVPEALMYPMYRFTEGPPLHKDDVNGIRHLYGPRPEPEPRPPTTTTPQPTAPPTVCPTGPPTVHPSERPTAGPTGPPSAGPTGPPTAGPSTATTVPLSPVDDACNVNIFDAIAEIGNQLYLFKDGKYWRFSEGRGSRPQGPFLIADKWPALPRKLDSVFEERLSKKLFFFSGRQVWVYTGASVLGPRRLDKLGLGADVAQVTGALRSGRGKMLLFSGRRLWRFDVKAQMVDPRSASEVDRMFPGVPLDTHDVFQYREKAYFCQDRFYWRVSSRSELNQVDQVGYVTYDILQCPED
T1 sequence (P08253 whole entry): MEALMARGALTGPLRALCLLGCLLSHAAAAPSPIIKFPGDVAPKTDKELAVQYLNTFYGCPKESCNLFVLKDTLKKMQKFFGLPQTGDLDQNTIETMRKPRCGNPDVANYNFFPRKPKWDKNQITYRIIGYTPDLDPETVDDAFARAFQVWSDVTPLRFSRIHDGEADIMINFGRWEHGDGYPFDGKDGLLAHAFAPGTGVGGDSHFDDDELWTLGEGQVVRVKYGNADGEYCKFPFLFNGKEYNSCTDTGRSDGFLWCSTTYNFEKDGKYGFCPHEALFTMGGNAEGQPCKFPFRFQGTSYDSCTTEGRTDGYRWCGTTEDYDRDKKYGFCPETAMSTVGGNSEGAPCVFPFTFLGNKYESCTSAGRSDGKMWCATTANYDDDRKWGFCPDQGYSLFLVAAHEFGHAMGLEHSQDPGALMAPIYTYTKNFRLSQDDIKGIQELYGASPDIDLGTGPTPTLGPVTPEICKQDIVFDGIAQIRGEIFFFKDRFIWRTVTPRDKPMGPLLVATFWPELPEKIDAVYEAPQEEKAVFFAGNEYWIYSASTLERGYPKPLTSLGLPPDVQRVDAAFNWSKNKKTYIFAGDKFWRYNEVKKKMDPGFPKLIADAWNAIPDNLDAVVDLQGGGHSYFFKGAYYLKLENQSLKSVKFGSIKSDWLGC
Chain of Macrophage metalloelastase (P39900 whole entry): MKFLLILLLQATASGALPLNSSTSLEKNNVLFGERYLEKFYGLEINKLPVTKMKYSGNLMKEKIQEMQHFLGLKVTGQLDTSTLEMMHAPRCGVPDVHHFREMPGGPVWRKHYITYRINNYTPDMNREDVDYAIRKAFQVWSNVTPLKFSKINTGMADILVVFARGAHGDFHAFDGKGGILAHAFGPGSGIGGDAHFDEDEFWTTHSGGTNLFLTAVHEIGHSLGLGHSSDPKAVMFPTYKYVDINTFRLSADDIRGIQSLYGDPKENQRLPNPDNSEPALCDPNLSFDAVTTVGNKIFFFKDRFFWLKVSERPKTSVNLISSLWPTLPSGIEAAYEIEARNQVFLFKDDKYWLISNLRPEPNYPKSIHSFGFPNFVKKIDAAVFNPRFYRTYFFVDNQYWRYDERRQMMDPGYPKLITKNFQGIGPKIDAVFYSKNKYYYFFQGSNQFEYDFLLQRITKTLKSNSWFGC
Chain of Stromelysin-1 (P08254 whole entry): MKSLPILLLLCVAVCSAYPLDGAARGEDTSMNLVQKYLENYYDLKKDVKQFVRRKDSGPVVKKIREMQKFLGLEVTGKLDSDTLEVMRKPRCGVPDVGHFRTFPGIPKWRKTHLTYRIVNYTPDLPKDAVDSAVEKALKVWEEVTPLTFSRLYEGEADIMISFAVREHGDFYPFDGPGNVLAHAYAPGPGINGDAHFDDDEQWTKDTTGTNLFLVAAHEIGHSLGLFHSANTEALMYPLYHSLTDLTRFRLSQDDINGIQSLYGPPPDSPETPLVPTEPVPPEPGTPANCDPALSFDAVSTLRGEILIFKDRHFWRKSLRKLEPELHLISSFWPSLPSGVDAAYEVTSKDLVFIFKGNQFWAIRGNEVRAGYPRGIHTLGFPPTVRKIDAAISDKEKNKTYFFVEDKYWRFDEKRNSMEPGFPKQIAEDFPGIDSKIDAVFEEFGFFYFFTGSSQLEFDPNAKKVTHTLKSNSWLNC

On to `NC(=O)[C@H](CCC(=O)O)NC(=O)c1ccc(-c2cc(-c3ccccc3)cs2)cc1`, for which the concentration for half-maximal inhibition (IC50) in test [1] was 2.5 nM.
For `CC[C@H](C)[C@H](N)C(=O)N[C@@H](CO)C(=O)N[C@@H](Cc1ccc(O)cc1)C(=O)NCC(=O)N[C@@H](CC(N)=O)C(=O)N[C@@H](CC(=O)O)C(=O)N[C@@H](C)C(=O)N[C@@H](CC(C)C)C(=O)N[C@@H](CCSC)C(=O)N1CCC[C@H]1C(=O)O` (H-ISYGNDALMP-OH), the concentration for half-maximal inhibition (IC50) in [2] is 30 nM; in test [3], 2000 nM; against Stromelysin-1, above 10000 nM; against Matrilysin, above 10000 nM; in test [4], above 10000 nM.
`CCCC(C)NC(=O)c1ccc(Cl)c(Cl)c1` (centres undefined) came in with a half-inhibitory concentration (IC50) in test [5] above 100000 nM.
In the case of `CCCCCC(=O)N1CC(F)(F)C[C@@H]1C(=O)N(C)[C@H](C(=O)N[C@@H](CCNC(=O)c1ccccc1)C(=O)NO)[C@@H](C)CC`, the values for the IC50 in test [6] and in test [7] were 656 nM and 310 nM, respectively.
